Measured values taken from ChEMBL document CHEMBL1201862, “PubChem BioAssay data set” (2004).
Calls of active or inactive are those of the source.

Key:
[1] = test system: HEK293; assay: cells; type: functional, cell-based; settings: Homo sapiens
[2] = target: T1, Nuclear receptor subfamily 0 group B member 1 (Homo sapiens, UniProt P51843); assay: Luminescence-based cell-based high throughput dose response assay for inhibitors of the orphan nuclear receptor subfamily 0, group B, member 1 (DAX1; NR0B1). [Related pubchem assays (depositor defined):AID504766, AID504790]; type: functional
T1 sequence (P51843 whole entry): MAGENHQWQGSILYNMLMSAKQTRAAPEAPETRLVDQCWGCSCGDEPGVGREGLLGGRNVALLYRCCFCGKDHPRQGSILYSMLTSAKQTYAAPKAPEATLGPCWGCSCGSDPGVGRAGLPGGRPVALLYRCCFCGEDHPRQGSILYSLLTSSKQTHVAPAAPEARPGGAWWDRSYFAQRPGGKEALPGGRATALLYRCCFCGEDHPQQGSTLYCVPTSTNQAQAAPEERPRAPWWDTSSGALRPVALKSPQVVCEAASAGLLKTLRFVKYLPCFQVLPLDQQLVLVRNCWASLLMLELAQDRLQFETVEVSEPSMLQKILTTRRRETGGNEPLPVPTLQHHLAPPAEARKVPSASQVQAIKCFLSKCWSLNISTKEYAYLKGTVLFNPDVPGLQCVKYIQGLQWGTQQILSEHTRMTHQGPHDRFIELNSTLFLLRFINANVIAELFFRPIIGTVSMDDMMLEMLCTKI

[3] = test system: BJ; assay: cytotoxicity toward BJ-TERT fibroblasts, dose response, cell-based, RAS-independent, luminescence (AID 1933); type: functional; settings: Homo sapiens
[4] = test system: BJ; assay: cells; type: functional, cell-based; settings: Homo sapiens
[5] = test system: BJ; assay: cytotoxicity toward BJ-TERT-LT-ST fibroblasts, dose response, cell-based, RAS-independent, luminescence (AID 1935); type: functional; settings: Homo sapiens;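 also: BJ fibroblasts immortalized with TERT plus LT and ST oncogenes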
[6] = cytotoxicity toward DRD oncogenic fibroblasts, dose response, cell-based, non-viral oncogenic, luminescence (AID 1934); type: functional; settings: Homo sapiens
[7] = test system: BJ; assay: cytotoxicity toward Ras-transformed BJeLR fibroblasts, dose response, cell-based, alamar blue fluorescence, cherrypicked samples (AID 2631); type: functional; settings: Homo sapiens;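 also: confirmatory dose-response assay in RAS-dependent BJ fibroblasts engineered with TERT, LT and ST, with cytotoxicity read by fluorescence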
[8] = test system: CHO; assay: cytotoxicity in TLR9-MyD88 CHO cells, dose response, cytotoxicity control for TLR9-MyD88 binding inhibitor project, cell-based, luminescence (AID 588339); type: functional, hamster; settings: Cricetulus griseus;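 also: CHO cells stably coexpressing TLR9 and MyD88 fusions from primary screen; compound exposure lasted 48 hours before viability readout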
[9] = test system: Escherichia coli; assay: microbe, parasite or virus in culture
[10] = test system: HEK293; assay: NOD1 signaling inhibitors, primary screen, cell-based, luminescence, uHTS (AID 1578); type: functional; settings: Homo sapiens
[11] = test system: HEK293; assay: cells; type: functional, cell-based; settings: Homo sapiens; remark: listed apart in the source
[12] = test system: HEK293; assay: cells; type: functional, cell-based; settings: Homo sapiens; remark: listed apart in the source
[13] = target: Nucleotide-binding oligomerization domain-containing protein 2 (Homo sapiens, UniProt Q9HC29); assay: NOD2 signaling inhibitors, cell-based, luminescence, uHTS, HEK293 (AID 1566); type: functional
[14] = test system: HEK293; assay: NOD2 signaling inhibitors in MDP-stimulated cells, cell-based, uHTS, luminescence (AID 2001); type: functional; settings: Homo sapiens
[15] = test system: HEK293; assay: cells; type: functional, cell-based; settings: Homo sapiens; remark: listed apart in the source
[16] = target: T2, Corticotropin-releasing factor receptor 2/Corticotropin-releasing factor-binding protein (Homo sapiens, UniProt P24387+Q13324); assay: Dose Response confirmation of uHTS hits for small molecule antagonists of the CRF-binding protein and CRF-R2 receptor complex.; type: functional; settings: read-out: IC50_Mean
T2 sequence (Q13324 whole entry): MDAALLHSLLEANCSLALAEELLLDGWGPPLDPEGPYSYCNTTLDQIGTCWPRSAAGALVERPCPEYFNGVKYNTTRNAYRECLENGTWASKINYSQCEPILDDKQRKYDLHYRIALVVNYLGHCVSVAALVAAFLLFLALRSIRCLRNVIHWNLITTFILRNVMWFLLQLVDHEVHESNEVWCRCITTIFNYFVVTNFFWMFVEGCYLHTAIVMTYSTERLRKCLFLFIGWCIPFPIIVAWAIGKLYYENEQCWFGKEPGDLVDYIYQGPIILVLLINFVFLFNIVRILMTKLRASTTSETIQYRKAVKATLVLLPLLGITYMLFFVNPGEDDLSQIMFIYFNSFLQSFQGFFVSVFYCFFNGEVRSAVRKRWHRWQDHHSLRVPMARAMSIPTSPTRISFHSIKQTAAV
T2 sequence (P24387 whole entry): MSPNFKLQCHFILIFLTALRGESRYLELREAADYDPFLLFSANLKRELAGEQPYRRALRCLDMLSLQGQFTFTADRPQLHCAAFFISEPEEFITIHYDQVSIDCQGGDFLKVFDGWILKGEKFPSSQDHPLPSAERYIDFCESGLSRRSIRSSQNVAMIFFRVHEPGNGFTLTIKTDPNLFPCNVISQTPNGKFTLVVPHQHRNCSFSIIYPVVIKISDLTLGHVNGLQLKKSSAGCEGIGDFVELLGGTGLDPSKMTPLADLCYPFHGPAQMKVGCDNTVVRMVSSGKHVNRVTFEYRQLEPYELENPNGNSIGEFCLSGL

[17] = target: T2, Corticotropin-releasing factor receptor 2/Corticotropin-releasing factor-binding protein; assay: activators of CRF receptor 2 with binding protein – uHTS hits, confirmation (AID 602473); type: functional; settings: read-out: EC50_Mean
[18] = CRF-BP/CRF-R2 complex antagonists, dose response, cell-based, uHTS hits, 384-well (AID 651639); type: functional, Homo sapiens; settings: read-out: IC50_Mean
[19] = HeLa cell cytotoxicity, dose response, cytotoxicity control for MgcRacGAP inhibitor project (AID 624300); type: functional
[20] = target: T3, Rac GTPase-activating protein 1 (Homo sapiens, UniProt Q9H0H5); assay: MgcRacGAP GTPase-activating activity inhibitors, confirmation, biochemical, ADP Hunter fluorescence, primary and confirmatory (AID 624330); type: functional
T3 sequence (Q9H0H5 whole entry): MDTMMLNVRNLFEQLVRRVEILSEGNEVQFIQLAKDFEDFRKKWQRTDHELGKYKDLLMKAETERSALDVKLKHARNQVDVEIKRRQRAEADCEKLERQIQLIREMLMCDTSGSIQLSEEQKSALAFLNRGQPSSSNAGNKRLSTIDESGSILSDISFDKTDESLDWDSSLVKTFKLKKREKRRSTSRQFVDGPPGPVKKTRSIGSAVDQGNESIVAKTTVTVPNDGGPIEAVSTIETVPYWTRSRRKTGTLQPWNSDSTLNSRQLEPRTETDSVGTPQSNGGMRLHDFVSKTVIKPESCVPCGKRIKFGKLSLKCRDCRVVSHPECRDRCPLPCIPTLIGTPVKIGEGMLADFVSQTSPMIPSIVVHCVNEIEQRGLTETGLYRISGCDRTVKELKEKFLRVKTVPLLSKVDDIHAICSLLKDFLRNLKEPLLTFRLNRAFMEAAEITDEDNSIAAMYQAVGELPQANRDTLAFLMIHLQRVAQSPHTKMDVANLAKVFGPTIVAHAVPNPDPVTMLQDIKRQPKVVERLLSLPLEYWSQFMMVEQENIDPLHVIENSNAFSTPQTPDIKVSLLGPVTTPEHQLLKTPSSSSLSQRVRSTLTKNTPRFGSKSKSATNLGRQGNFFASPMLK

[21] = target: T4, High affinity choline transporter 1 (Homo sapiens, UniProt Q9GZV3); assay: CHT inhibitors, dose response, cell-based, 5-point CRC, membrane potential dye (AID 504840); type: functional
T4 sequence (Q9GZV3 whole entry): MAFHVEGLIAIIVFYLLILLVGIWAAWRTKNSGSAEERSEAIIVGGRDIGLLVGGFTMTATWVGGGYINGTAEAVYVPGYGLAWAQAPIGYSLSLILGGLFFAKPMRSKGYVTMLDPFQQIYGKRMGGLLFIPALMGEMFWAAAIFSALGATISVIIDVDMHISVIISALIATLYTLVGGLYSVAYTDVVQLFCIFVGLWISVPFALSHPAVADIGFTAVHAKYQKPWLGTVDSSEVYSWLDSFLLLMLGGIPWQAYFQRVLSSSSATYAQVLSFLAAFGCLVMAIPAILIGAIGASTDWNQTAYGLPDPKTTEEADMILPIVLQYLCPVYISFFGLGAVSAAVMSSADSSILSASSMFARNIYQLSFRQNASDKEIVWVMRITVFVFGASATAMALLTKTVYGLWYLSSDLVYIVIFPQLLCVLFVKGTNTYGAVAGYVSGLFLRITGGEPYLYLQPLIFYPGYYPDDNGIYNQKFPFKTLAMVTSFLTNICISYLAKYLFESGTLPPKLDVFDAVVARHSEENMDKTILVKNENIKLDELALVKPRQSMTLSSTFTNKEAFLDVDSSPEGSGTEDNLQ

[22] = target: T4, High affinity choline transporter 1; assay: CHT inhibitors, dose response, cell-based, 10-point CRC, membrane potential dye (AID 588401); type: functional;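 also: membrane potential dye fluorescence of choline-evoked depolarization via CHT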
[23] = HEK293T cell cytotoxicity, dose response, cytotoxicity control for HIV Vif inhibitor project, cherry-picks (AID 652208); type: functional, cell-based
[24] = target: Fructose-bisphosphate aldolase (Mycobacterium tuberculosis, UniProt P9WQA3); assay: Fluorescence-based biochemical high throughput dose response assay for inhibitors of the fructose-bisphosphate aldolase (FBA) of M. tuberculosis.; type: functional
Sequence of Fructose-bisphosphate aldolase (P9WQA3 whole entry): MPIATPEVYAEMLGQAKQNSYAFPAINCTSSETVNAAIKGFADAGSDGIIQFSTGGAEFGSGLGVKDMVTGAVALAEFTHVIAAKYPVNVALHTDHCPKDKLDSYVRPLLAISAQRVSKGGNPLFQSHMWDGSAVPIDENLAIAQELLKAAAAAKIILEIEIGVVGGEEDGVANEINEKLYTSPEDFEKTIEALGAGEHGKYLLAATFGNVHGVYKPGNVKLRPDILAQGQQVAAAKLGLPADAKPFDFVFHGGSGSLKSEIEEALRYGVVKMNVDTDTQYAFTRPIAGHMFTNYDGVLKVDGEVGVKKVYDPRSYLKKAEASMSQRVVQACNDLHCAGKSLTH

Sequence of Nucleotide-binding oligomerization domain-containing protein 2 (Q9HC29 whole entry, the tested form may be a part): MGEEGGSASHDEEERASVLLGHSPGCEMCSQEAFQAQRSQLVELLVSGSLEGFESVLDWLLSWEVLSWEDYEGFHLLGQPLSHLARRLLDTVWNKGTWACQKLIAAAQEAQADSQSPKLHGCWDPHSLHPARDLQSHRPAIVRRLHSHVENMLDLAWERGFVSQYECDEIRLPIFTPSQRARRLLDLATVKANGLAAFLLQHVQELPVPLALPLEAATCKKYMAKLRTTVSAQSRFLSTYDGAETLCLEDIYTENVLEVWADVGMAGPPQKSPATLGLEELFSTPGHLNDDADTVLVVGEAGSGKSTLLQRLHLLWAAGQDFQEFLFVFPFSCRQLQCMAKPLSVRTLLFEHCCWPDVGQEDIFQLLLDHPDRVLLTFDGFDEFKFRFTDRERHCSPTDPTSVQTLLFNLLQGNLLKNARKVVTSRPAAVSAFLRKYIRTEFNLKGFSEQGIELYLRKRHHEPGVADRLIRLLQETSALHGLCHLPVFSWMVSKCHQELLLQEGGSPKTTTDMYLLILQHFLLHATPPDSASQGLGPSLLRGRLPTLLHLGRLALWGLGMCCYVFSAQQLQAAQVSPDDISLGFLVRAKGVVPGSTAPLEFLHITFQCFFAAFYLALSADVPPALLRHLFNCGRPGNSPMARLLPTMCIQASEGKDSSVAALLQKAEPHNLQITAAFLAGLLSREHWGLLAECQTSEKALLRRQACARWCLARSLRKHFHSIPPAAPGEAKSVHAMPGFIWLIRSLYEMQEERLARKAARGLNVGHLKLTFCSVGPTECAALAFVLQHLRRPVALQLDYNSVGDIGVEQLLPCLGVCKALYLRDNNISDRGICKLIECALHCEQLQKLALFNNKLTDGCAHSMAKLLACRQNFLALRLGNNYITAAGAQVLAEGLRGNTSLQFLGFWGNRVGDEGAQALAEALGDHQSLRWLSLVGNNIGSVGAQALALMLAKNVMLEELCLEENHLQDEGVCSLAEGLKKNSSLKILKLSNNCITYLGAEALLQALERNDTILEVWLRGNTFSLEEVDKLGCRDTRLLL

In the case of `O=S(=O)(NCc1ccc2c(c1)OCO2)c1ccc(F)cc1`, the IC50 [1] is reported as > 67.6 µM (inactive) and the IC50 [2] is reported as > 67.6 µM (inactive).

For `O=C(/C=C\c1ccco1)Nc1cc([N+](=O)[O-])ccc1F`, the EC50 [3] was 1.44 µM (active), the EC50 [4] was 2.06 µM (active) and the EC50 [5] was 0.821 µM (active). The EC50 [6] was 1.17 µM (active) and the EC50 [7] was 0.42 µM (active).

With `CCCCNC(=O)COC(=O)c1c2c(nc3ccccc13)/C(=C/c1cccs1)CC2` the IC50 [8] was > 49.7 µM (inactive).

In the case of `O=C(Nc1cc(S(=O)(=O)N2CCOCC2)ccc1N1CCCC1)c1ccc(Cl)cc1`, the AC50 [9] is reported as 25.2 µM (active).

In the case of `Cc1[nH]n(-c2cccc(Cl)c2)c(=O)c1-c1ccc(Cl)cc1`, the EC50 [10] is reported as 2.43 µM (active), the IC50 [11] is reported as 14.2 µM (active) and the IC50 [12] is reported as > 20 µM (inactive). The EC50 [13] was 12.8 µM (active), the IC50 [14] was 9.97 µM (inactive) and the IC50 [15] was > 20 µM (inactive). The IC50 [16] was 0.98 µM (active), the EC50 [17] was > 53 µM (inactive) and the IC50 [18] was > 20 µM (inactive). For the same compound, the CC50 [19] was 100 µM (active) and the IC50 [20] was 80 µM (active).

In the case of `COc1ccc(-c2cc(=O)c3cc(O)ccc3o2)cc1`, the IC50 [21] is reported as 4.38 µM (active) and the IC50 [22] is reported as 3.64 µM (active).

With `O=C(/C=C/c1ccccc1)Nc1nc[nH]n1` the AC50 [23] was 23.6 µM (active).

For `COc1ccc2nc3c(O)n4c(nc-3c2c1)SCC4`, the IC50 [24] was 1.4 µM (active).
